Source: US20260325605A1, “INHIBITORS” (Zealand Pharma A/S, priority 2022, published 2026)

Assays:
Kv1.6 = molecular target: T1, Kv1.6 (Homo sapiens, UniProt P17658); test: Patch clamp assay (QPatch), Kv1.6; type: cell-based; conditions: for IC50: QPatch, CHO cells stably expressing human Kv1.6, read-out: Potency IC50, Kv1.6; for Selectivity Kv1.6/Kv1.3: ratio of IC50 Kv1.6/Kv1.3
T1 construct: expressed in transfected cells
Experimental: (§1) Selectivity of Kv1.3 inhibitor peptides for Kv1.3 over other potassium ion channels (Kv1.1, Kv1.2 and Kv1.6) was determined using patch clamp assay.
(§2) Chinese Hamster Ovary (CHO) cell lines stably expressing exogenous human α-subunits of each potassium ion channel were grown and passaged under standard culture conditions.
(§3) The automated, chip-based planar patch clamp device QPatch® was used to quantitate the ionic currents. All recordings were made in the conventional whole-cell configuration after establishment of gigaohm seals. […] During experiments 0.1% (v/v) BSA was included as a vehicle in all external recording solutions. Currents were elicited from a holding potential of −80 mV using a voltage protocol, which shifted the voltage to 30 mV for 500 ms every 15 s.
(§4) Concentration-response relationships were established by cumulatively applying seven escalating concentrations of test sample to an individual cell with a recording period of 2 min per compound application.
(§5) The efficacy was determined as the mean charge for the last three sweeps at the end of each concentration application period from the cursor positions. The percent inhibition for each test dose application period was calculated as the reduction in mean cursor value (charge) relative to the cursor value measured at the end of the vehicle period and used to calculate the IC50 from the concentration response curve.

Kv1.3 = molecular target: T2, Kv1.3 (Homo sapiens, UniProt P22001); test: Patch clamp assay (QPatch), Kv1.3; type: cell-based; conditions: CHO cells stably expressing human Kv1.3, read-out: Potency IC50, Kv1.3
T2 construct: expressed in transfected cells
T2 sequence (P22001 whole entry): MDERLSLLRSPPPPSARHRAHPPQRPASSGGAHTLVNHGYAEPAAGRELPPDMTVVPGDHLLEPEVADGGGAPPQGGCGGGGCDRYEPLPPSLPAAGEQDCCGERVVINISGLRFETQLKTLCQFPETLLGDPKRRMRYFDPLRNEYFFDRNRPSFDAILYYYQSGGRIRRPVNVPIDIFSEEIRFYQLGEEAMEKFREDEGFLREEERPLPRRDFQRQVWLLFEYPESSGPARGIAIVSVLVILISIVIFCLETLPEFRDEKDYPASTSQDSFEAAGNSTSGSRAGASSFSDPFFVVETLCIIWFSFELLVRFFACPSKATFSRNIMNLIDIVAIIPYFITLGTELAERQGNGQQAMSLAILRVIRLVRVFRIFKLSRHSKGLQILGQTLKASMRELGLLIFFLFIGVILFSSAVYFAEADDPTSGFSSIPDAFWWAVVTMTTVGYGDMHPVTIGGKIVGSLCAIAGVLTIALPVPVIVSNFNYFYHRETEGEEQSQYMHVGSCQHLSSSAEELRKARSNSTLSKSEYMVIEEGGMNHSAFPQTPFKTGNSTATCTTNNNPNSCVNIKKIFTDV

[1] = tested on: T-cell activation in rat whole blood; test: Example 4: IL-17A release in thapsigargin stimulated rat whole blood; type: cell-based, rat (Lewis or Sprague-Dawley); conditions: 24 Hr, at least 2 replicates, unit inferred, read-out: IC50 (inhibition of IL-17A release)
From the text: Rat whole blood was used to assess the potency of Kv1.3 inhibitor peptides on T-cell activation as determined by IL-17A release after stimulation with thapsigargin. Addition of thapsigargin results in activation of a signalling cascade ending up in activation of T cell proliferation and cytokine production where the Kv1.3 ion channel plays a key role, so activity of Kv1.3 inhibitors in primary cells can be measured in this experimental system.
Rat whole blood was obtained from healthy, naïve Lewis or Sprague-Dawley rats that were terminally bleed from the heart using Sodium Heparin blood sampling tubes for collection. Peptides were diluted to 4× final testing concentrations in assay buffer (DMEM+GlutaMAX), GlutaMAX is a medium comprising 3.97 mM L-alanine-L-glutamine (Gibco Cat #61965026) supplemented with 25 mM HEPES buffer, 1 mM Sodium Pyruvate, 100 units/ml Penicillin, 100 μg/ml Streptomycin and 0.05% Casein from bovine milk (Sigma-Aldrich)) and 25 μl was added to wells of a 96 well plate. Then 50 μl whole rat blood was added and incubated for minimum 5 minutes at room temperature to allow compound binding. Then 25 μl 40 μM thapsigargin diluted in assay buffer was added to all wells of the assay plates to activate the cells, followed by incubation for 24 Hr at 37° C./5% CO2 in a humidified box. The assay plates were centrifuged for 10 min at 300 g at 4° C. and the supernatants were transferred to new plates. The concentrations of IL-17A released to the supernatants were measured using a Rat IL-17A ELISA Kit (Abcam Cat #ab214028) as recommended by the manufacturer. Samples were diluted 2.5-fold by transferring 20 μl of the supernatants to wells on ELISA plates containing 30 μl buffer 75BS from the detection kit.
Data from peptides eliciting an inhibition of IL-17A were normalised relative to full thapsigargin activation (no inhibitor added) and no activation controls (addition of assay buffer instead of thapsigargin) to calculate the IC50 from the concentration response curve.
Results are shown in Table 5, expressed as IC50, with standard deviation (IC50_SD). All values are derived from at least 2 replicates. The biological effects ex vivo show a correlation with the potency of the peptides.

Kv1.1 = molecular target: T3, Kv1.1 (Homo sapiens, UniProt Q09470); test: Patch clamp assay (QPatch), Kv1.1; type: cell-based; conditions: for IC50: QPatch, CHO cells stably expressing human Kv1.1, read-out: Potency IC50, Kv1.1; for Selectivity Kv1.1/Kv1.3: ratio of IC50 Kv1.1/Kv1.3
T3 construct: expressed in transfected cells
T3 sequence (Q09470 whole entry): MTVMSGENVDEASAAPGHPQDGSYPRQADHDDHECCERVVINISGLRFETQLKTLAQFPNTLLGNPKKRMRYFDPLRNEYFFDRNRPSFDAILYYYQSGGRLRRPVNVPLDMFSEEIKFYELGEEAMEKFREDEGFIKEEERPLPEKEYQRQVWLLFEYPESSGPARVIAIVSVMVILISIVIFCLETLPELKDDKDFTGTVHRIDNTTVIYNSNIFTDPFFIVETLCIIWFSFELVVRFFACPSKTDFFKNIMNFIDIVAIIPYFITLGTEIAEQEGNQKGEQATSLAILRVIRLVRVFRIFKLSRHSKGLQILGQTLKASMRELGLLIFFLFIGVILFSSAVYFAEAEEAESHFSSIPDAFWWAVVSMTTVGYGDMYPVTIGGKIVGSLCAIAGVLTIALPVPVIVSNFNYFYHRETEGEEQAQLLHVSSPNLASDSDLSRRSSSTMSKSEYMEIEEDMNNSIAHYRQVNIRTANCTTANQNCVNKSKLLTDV
Experimental: as §1, §2, §3, §4, §5

Kv1.2 = molecular target: T4, Kv1.2 (Homo sapiens, UniProt P16389); test: Patch clamp assay (QPatch), Kv1.2; type: cell-based; conditions: for IC50: QPatch, CHO cells stably expressing human Kv1.2, read-out: Potency IC50, Kv1.2; for Selectivity Kv1.2/Kv1.3: ratio of IC50 Kv1.2/Kv1.3
T4 construct: expressed in transfected cells
T4 sequence (P16389 whole entry): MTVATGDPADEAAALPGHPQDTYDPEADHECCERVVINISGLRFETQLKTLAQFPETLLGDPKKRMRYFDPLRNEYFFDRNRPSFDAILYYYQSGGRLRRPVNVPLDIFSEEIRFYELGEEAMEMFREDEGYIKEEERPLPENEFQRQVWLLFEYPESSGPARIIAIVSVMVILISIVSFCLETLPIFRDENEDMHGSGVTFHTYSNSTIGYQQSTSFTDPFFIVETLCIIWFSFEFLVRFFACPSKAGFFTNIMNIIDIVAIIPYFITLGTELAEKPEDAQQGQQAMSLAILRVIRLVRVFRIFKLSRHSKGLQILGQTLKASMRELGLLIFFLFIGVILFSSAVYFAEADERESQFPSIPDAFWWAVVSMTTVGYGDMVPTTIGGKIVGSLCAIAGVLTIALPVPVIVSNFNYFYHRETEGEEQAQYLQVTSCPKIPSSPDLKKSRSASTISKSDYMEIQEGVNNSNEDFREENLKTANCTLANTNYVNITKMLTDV
Experimental: as §1, §2, §3, §4, §5

T1 sequence (P17658 whole entry): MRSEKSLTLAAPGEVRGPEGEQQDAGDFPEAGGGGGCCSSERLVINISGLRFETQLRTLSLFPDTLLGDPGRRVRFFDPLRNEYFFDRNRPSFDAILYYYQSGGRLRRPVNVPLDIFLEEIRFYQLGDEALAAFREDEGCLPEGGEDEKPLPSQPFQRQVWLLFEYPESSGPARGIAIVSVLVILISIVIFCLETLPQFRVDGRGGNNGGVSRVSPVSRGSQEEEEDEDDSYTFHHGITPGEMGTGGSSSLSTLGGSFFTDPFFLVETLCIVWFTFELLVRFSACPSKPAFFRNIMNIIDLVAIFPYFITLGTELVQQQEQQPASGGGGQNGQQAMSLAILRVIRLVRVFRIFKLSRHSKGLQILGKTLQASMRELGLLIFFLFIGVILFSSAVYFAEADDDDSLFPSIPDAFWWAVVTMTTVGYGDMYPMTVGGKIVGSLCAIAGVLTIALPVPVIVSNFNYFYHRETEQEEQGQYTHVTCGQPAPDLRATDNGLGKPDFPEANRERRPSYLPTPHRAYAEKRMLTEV

| Substance | IC50 (Kv1.6) | Selectivity Kv1.6/Kv1.3 (Kv1.6) | IC50 (Kv1.3) | IC50 [1] | IC50 (Kv1.1) | Selectivity Kv1.1/Kv1.3 (Kv1.1) | IC50 (Kv1.2) | Selectivity Kv1.2/Kv1.3 (Kv1.2) |
| --- | --- | --- | --- | --- | --- | --- | --- | --- |
| Ac-C(1)SASVEC(2)KQKC(3)LKAIGSIFGKC(1)[Nle]NKKC(2)KC(3)YPR-NH2 [Peptide 109] | > 3000 nM | >12400 | 0.24 nM | 0.88 nM | > 3000 nM | >12400 | 384 nM | 1591 |
| Ac-LRC(1)SASVEC(2)KQKC(3)LKAIGSIFGKC(1)[Nle]NKKC(2)KC(3)YPR-NH2 [Peptide 114] | 2460 nM | 7096 | 0.35 nM | 0.37 nM | > 3000 nM | >8700 | 122 nM | 352 |
| Ac-SKC(1)SASVEC(2)KQKC(3)LKAIGSIFGKC(1)[Nle]NKKC(2)KC(3)YPR-NH2 [Peptide 113] | 1450 nM | 1451 | 1 nM | 0.36 nM | > 3000 nM | >3000 | 196 nM | 196 |
| H-C(1)SASVEC(2)KQKC(3)LKAIGSIFGKC(1)MNKKC(2)KC(3)YPR-OH [Peptide 124] | > 3000 nM | >1400 | 2.09 nM | 1.9 nM | > 3000 nM | >1400 | 1830 nM | 878 |
| H-H[Nle]D[Nle]RC(1)SASVEC(2)KQKC(3)LKAIGSIFGKC(1)[Nle]NKKC(2)KC(3)YPR-NH2 [Peptide 65] |  |  | 0.25 nM | 1.2 nM |  |  |  |  |
| H-NMDMRC(1)SASREC(2)KQKC(3)LKAIGSIFGKC(1)MNKKC(2)KC(3)YPR-NH2 [Peptide 28] | 206 nM | 1778 | 0.12 nM | 0.68 nM | > 3000 nM | >25900 | 11 nM | 94 |
| H-NMDMRC(1)SASVEC(2)KEKC(3)LKAIGSIFGKC(1)MNKKC(2)KC(3)YPR-NH2 [Peptide 32] | > 3000 nM | >10800 | 0.28 nM | 0.86 nM | > 3000 nM | >10800 | 179 nM | 648 |
| H-NMDMRC(1)SASVEC(2)KLKC(3)LKAIGSIFGKC(1)MNKKC(2)KC(3)YPR-NH2 [Peptide 33] |  |  | 0.38 nM | 0.75 nM |  |  |  |  |
| H-NMDMRC(1)SASVEC(2)KQKC(3)KKAIGSIFGKC(1)MNKKC(2)KC(3)YPR-NH2 [Peptide 20] | 435 nM | 1955 | 0.22 nM | 0.56 nM | > 3000 nM | >13500 | 45 nM | 202 |
| H-NMDMRC(1)SASVEC(2)KQKC(3)LKAIESIFGKC(1)MNKKC(2)KC(3)YPR-NH2 [Peptide 23] | > 3000 nM | >10200 | 0.29 nM | 2.8 nM | > 3000 nM | >10200 | 181 nM | 615 |
| H-NMDMRC(1)SASVEC(2)KQKC(3)LKAIGSIFGKC(1)MNGKC(2)KC(3)YPR-NH2 [Peptide 37] | > 3000 nM | >9700 | 0.31 nM | 1.2 nM | > 3000 nM | >9700 | 439 nM | 1422 |
| H-NMDMRC(1)SASVEC(2)KQKC(3)LKAIGSIFGKC(1)MNKKC(2)HC(3)YPR-NH2 [Peptide 38] | > 3000 nM | >16100 | 0.19 nM | 0.77 nM | > 3000 nM | >16100 | 338 nM | 1816 |
| H-NMDMRC(1)SASVEC(2)KQKC(3)LKAIGSKFGKC(1)MNKKC(2)KC(3)YPR-NH2 [Peptide 35] | 207 nM | 490 | 0.42 nM | 2.1 nM | > 3000 nM | >7100 | 100 nM | 237 |
| H-NMDMRC(1)SASVEC(2)KQKC(3)LKAIRSIFGKC(1)MNKKC(2)KC(3)YPR-NH2 [Peptide 22] | 626 nM | 2851 | 0.22 nM | 0.82 nM | > 3000 nM | >13700 | 57 nM | 259 |
| H-NMDMRC(1)SASVEC(2)KQLC(3)LKAIGSIFGKC(1)MNKKC(2)KC(3)YPR-NH2 [Peptide 19] | > 3000 nM | >12700 | 0.24 nM | 3.2 nM | > 3000 nM | >12700 | 256 nM | 1080 |
| H-NMDMRC(1)SASVEC(2)LQKC(3)LKAIGSIFGKC(1)MNKKC(2)KC(3)YPR-NH2 [Peptide 30] | > 3000 nM | >7400 | 0.4 nM | 0.76 nM | > 3000 nM | >7400 | 874 nM | 2163 |
| H-NMDMRC(1)SASVQC(2)KQKC(3)LKAIGSIFGKC(1)MNKKC(2)KC(3)YPR-NH2 [Peptide 29] | 252 nM | 1272 | 0.2 nM | 0.53 nM | > 3000 nM | >15200 | 16 nM | 83 |
| H-NMDMRC(1)SISVEC(2)KQKC(3)LKAIGSIFGKC(1)MNKKC(2)KC(3)YPR-NH2 [Peptide 27] | > 3000 nM | >11800 | 0.26 nM | 0.61 nM | > 3000 nM | >11800 | 43 nM | 169 |
| H-N[Nle]D[Nle]RC(1)RASVEC(2)KQKC(3)LKAIGSIFGKC(1)[Nle]NKKC(2)KC(3)YPR-NH2 [Peptide 43] | 316 nM | 1954 | 0.16 nM | 0.91 nM | > 3000 nM | >18600 | 109 nM | 674 |
| H-P[Nle]E[Nle]RC(1)[2-Amino-3-guanidinopropionyl]ASVEC(2)KQKC(3)LAAIGSIFGKC(1)[Nle]NKKC(2)KC(3)YPR-OH [Peptide 91] | > 3000 nM | >46000 | 0.064 nM |  | > 3000 nM | >46000 | 380 nM | 6000 |
| H-QMDMRC(1)SASVEC(2)KQKC(3)LKAIGRGFGKC(1)MNKKC(2)KC(3)YPR-OH [Peptide 2] | 1810 nM | 1204 | 1.5 nM |  | > 3000 nM | >2000 | 97 nM | 65 |
| H-S[Nle]D[Nle]RC(1)SASVEC(2)AQSC(3)LKAIGSIFGKC(1)MNKKC(2)KC(3)YPR-NH2 [Peptide 81] | > 3000 nM | >14600 | 0.21 nM |  | > 3000 nM | >14600 | 1150 nM | 5596 |
| H-S[Nle]D[Nle]RC(1)SASVEC(2)KQKC(3)LKAIGSIFGKC(1)MNKKC(2)RC(3)YPR-NH2 [Peptide 77] |  |  | 0.13 nM | 0.86 nM |  |  |  |  |
| H-S[Nle]D[Nle]RC(1)SASVEC(2)KQKC(3)LKAIGSIFGKC(1)[Nle]NKKC(2)KC(3)YPR-NH2 [Peptide 67] |  |  | 0.18 nM | 0.47 nM |  |  |  |  |
| H-V[Nle]D[Nle]RC(1)SASVEC(2)KQKC(3)LKAIGSIFGKC(1)[Nle]NKKC(2)KC(3)YPR-NH2 [Peptide 69] |  |  | 0.32 nM | 0.98 nM |  |  |  |  |
| H-Y[Nle]D[Nle]RC(1)SASVEC(2)KQKC(3)LKAIGSIFGKC(1)[Nle]NKKC(2)KC(3)YPR-NH2 [Peptide 66] |  |  | 0.14 nM | 1.1 nM |  |  |  |  |
